Experimental data as given in PubChem BioAssay (NCI).
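Growth conditions: 96-well plates. Treatment: test compound, 48 hours, 5 concentrations. Analysis: linear interpolation between bracketing concentrations; unreached endpoints set to highest concentration. Definition used: TGI = concentration required for complete inhibition of growth.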

Legend:
Experiment in all cases: NCI tumour cell line growth inhibition, 48 h
786-0 renal = system: 786-0 renal
A498 renal = system: A498 renal
A549 NSCLC = system: A549 NSCLC
ACHN renal = system: ACHN renal
BT-549 breast = system: BT-549 breast
CAKI-1 renal = system: CAKI-1 renal
CCRF-CEM leukemia = system: CCRF-CEM leukemia
COLO 205 colon = system: COLO 205 colon
DU-145 prostate = system: DU-145 prostate
EKVX NSCLC = system: EKVX NSCLC
HCT-116 colon = system: HCT-116 colon
HCT-15 colon = system: HCT-15 colon
HL-60(TB) leukemia = system: HL-60(TB) leukemia
HOP-62 NSCLC = system: HOP-62 NSCLC
HOP-92 NSCLC = system: HOP-92 NSCLC
HS 578T breast = system: HS 578T breast
HT29 colon = system: HT29 colon
IGROV1 ovarian = system: IGROV1 ovarian
K-562 leukemia = system: K-562 leukemia
KM12 colon = system: KM12 colon
LOX IMVI melanoma = system: LOX IMVI melanoma
M14 melanoma = system: M14 melanoma
MALME-3M melanoma = system: MALME-3M melanoma
MCF7 breast = system: MCF7 breast
MDA-MB-231 breast = system: MDA-MB-231 breast
MDA-MB-435 = system: MDA-MB-435
MDA-N = system: MDA-N
MOLT-4 leukemia = system: MOLT-4 leukemia
NCI-H226 lung = system: NCI-H226 lung
NCI-H23 lung = system: NCI-H23 lung
NCI-H460 lung = system: NCI-H460 lung
NCI-H522 lung = system: NCI-H522 lung
NCI/ADR-RES ovarian = system: NCI/ADR-RES ovarian
OVCAR-3 ovarian = system: OVCAR-3 ovarian
OVCAR-4 ovarian = system: OVCAR-4 ovarian
OVCAR-5 ovarian = system: OVCAR-5 ovarian
OVCAR-8 ovarian = system: OVCAR-8 ovarian
PC-3 prostate = system: PC-3 prostate
RPMI-8226 leukemia = system: RPMI-8226 leukemia
SF-268 CNS = system: SF-268 CNS
SF-295 CNS = system: SF-295 CNS
SF-539 CNS = system: SF-539 CNS
SK-MEL-2 melanoma = system: SK-MEL-2 melanoma
SK-MEL-28 melanoma = system: SK-MEL-28 melanoma
SK-MEL-5 melanoma = system: SK-MEL-5 melanoma
SK-OV-3 ovarian = system: SK-OV-3 ovarian
SNB-19 CNS = system: SNB-19 CNS
SNB-75 CNS = system: SNB-75 CNS
SR leukemia = system: SR leukemia
SW-620 colon = system: SW-620 colon
T-47D breast = system: T-47D breast
TK-10 renal = system: TK-10 renal
U251 CNS = system: U251 CNS
UACC-257 melanoma = system: UACC-257 melanoma
UACC-62 melanoma = system: UACC-62 melanoma
UO-31 renal = system: UO-31 renal
HCC-2998 colon = system: HCC-2998 colon
SN12C renal = system: SN12C renal

CCOc1ccc(Nc2nc(N)nc(N)c2N)cc1
TGI (786-0 renal): 52.3 µM
TGI (A498 renal): > 100 µM
TGI (A549 NSCLC): > 100 µM
TGI (ACHN renal): > 100 µM
TGI (BT-549 breast): 76.6 µM
TGI (CAKI-1 renal): 70.3 µM
TGI (CCRF-CEM leukemia): > 100 µM
TGI (COLO 205 colon): 70.2 µM
TGI (DU-145 prostate): > 100 µM
TGI (EKVX NSCLC): > 100 µM
TGI (HCT-116 colon): > 100 µM
TGI (HCT-15 colon): > 100 µM
TGI (HL-60(TB) leukemia): > 100 µM
TGI (HOP-62 NSCLC): 79 µM
TGI (HOP-92 NSCLC): > 100 µM
TGI (HS 578T breast): 45.7 µM
TGI (HT29 colon): 33.3 µM
TGI (IGROV1 ovarian): 28.6 µM
TGI (K-562 leukemia): 50.1 µM
TGI (KM12 colon): 73.5 µM
TGI (LOX IMVI melanoma): > 100 µM
TGI (M14 melanoma): > 100 µM
TGI (MALME-3M melanoma): 66.2 µM
TGI (MCF7 breast): 38.1 µM
TGI (MDA-MB-231 breast): > 100 µM
TGI (MDA-MB-435): 65 µM
TGI (MDA-N): 13.3 µM
TGI (MOLT-4 leukemia): > 100 µM
TGI (NCI-H226 lung): > 100 µM
TGI (NCI-H23 lung): > 100 µM
TGI (NCI-H460 lung): 98 µM
TGI (NCI-H522 lung): 52.1 µM
TGI (NCI/ADR-RES ovarian): > 100 µM
TGI (OVCAR-3 ovarian): > 100 µM
TGI (OVCAR-4 ovarian): > 100 µM
TGI (OVCAR-5 ovarian): > 100 µM
TGI (OVCAR-8 ovarian): > 100 µM
TGI (PC-3 prostate): > 100 µM
TGI (RPMI-8226 leukemia): 38.1 µM
TGI (SF-268 CNS): 31.1 µM
TGI (SF-295 CNS): 45.8 µM
TGI (SF-539 CNS): 46.3 µM
TGI (SK-MEL-2 melanoma): > 100 µM
TGI (SK-MEL-28 melanoma): > 100 µM
TGI (SK-MEL-5 melanoma): > 100 µM
TGI (SK-OV-3 ovarian): > 100 µM
TGI (SNB-19 CNS): 93.4 µM
TGI (SNB-75 CNS): 70.5 µM
TGI (SR leukemia): 59.3 µM
TGI (SW-620 colon): > 100 µM
TGI (T-47D breast): 54.3 µM
TGI (TK-10 renal): > 100 µM
TGI (U251 CNS): 66 µM
TGI (UACC-257 melanoma): > 100 µM
TGI (UACC-62 melanoma): > 100 µM
TGI (UO-31 renal): 74.3 µM

COc1ccc(/C=c2\s/c(=C3/SC(=S)N(c4ccccc4)C3=O)n(-c3ccccc3)c2=O)cc1
TGI (786-0 renal): > 100 µM
TGI (A498 renal): > 100 µM
TGI (A549 NSCLC): > 100 µM
TGI (ACHN renal): 28.8 µM
TGI (BT-549 breast): > 100 µM
TGI (CAKI-1 renal): > 100 µM
TGI (CCRF-CEM leukemia): 77.4 µM
TGI (COLO 205 colon): > 100 µM
TGI (DU-145 prostate): > 100 µM
TGI (EKVX NSCLC): > 100 µM
TGI (HCC-2998 colon): > 100 µM
TGI (HCT-116 colon): > 100 µM
TGI (HCT-15 colon): > 100 µM
TGI (HL-60(TB) leukemia): > 100 µM
TGI (HOP-62 NSCLC): 69.9 µM
TGI (HOP-92 NSCLC): > 100 µM
TGI (HS 578T breast): 74 µM
TGI (HT29 colon): > 100 µM
TGI (IGROV1 ovarian): 75.9 µM
TGI (K-562 leukemia): > 100 µM
TGI (KM12 colon): > 100 µM
TGI (LOX IMVI melanoma): > 100 µM
TGI (M14 melanoma): > 100 µM
TGI (MALME-3M melanoma): > 100 µM
TGI (MCF7 breast): > 100 µM
TGI (MDA-MB-231 breast): > 100 µM
TGI (MDA-MB-435): > 100 µM
TGI (MDA-N): > 100 µM
TGI (MOLT-4 leukemia): 72.8 µM
TGI (NCI-H23 lung): > 100 µM
TGI (NCI-H460 lung): > 100 µM
TGI (NCI-H522 lung): > 100 µM
TGI (NCI/ADR-RES ovarian): > 100 µM
TGI (OVCAR-3 ovarian): > 100 µM
TGI (OVCAR-4 ovarian): > 100 µM
TGI (OVCAR-5 ovarian): > 100 µM
TGI (OVCAR-8 ovarian): > 100 µM
TGI (PC-3 prostate): > 100 µM
TGI (RPMI-8226 leukemia): > 100 µM
TGI (SF-268 CNS): 26.9 µM
TGI (SF-295 CNS): > 100 µM
TGI (SF-539 CNS): > 100 µM
TGI (SK-MEL-28 melanoma): > 100 µM
TGI (SK-MEL-5 melanoma): > 100 µM
TGI (SK-OV-3 ovarian): 45 µM
TGI (SN12C renal): > 100 µM
TGI (SNB-19 CNS): > 100 µM
TGI (SNB-75 CNS): 21.4 µM
TGI (SR leukemia): 31.8 µM
TGI (SW-620 colon): > 100 µM
TGI (T-47D breast): > 100 µM
TGI (TK-10 renal): 59.2 µM
TGI (U251 CNS): > 100 µM
TGI (UACC-62 melanoma): > 100 µM
TGI (UO-31 renal): > 100 µM
